Source: the supplement of paper PMC11997997

How the values were obtained:
[1] = tested on: murine bone marrow-derived macrophages; assay: area under cytotoxicity dose-response curve (AUC (% cytotoxicity x dose, relative)); higher = more cytotoxic; settings: duration: 6 days; dose range: 0.13-80 uM, 8 points
Procedure, shortened: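 Primary murine bone marrow-derived macrophages in opaque 384-well plates were exposed to an 8-point, 2.5-fold dilution series (final 80–0.13 μM) for 6 days at 37 °C in 5% CO2. Viability was read with Promega's CellTiter-Glo luminescence assay, and percent cytotoxicity was normalised to vehicle and positive control wells. Cytotoxicity is reported as the area under the dose–response curve, calculated in GraphPad Prism version 10.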

[2] = tested on: Mycobacterium tuberculosis CDC1551 (intracellular, in murine BMDM); assay: area under intracellular growth-inhibition dose-response curve (AUC (% inhibition x dose, relative)); higher = more potent; settings: duration: 6 days; dose range: 0.13-80 uM, 8 points
Procedure, shortened: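 Macrophages derived from primary murine bone marrow were infected for 1 h at multiplicity of infection 1 with luciferase-expressing M. tuberculosis CDC1551, then treated for 6 days at final concentrations of 80–0.13 μM. Bright-Glo luciferin signal, normalised to a reference drug control and the lowest-concentration wells, gave the growth readout. Area under the growth-inhibition dose–response curve was then calculated in GraphPad Prism.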

SMILES | area under cytotoxicity dose-response curve [1] | area under intracellular growth-inhibition dose-response curve [2]
C/C(=N\NC(=O)c1ccncc1)c1ccc(N2CCOCC2)cc1 | 16.1 | 255
O=[N+]([O-])c1ccc(/C=N/Nc2nc(N3CCCCC3)nc(N3CCCCC3)n2)o1 | < 0 | 226
CCCN(CCC)CC(O)Cn1cc(/C=C/C(=O)c2ccccc2)c2ccccc21 (centres undefined) | 9.39 | 226
Cc1cccc(OCCCC(=O)NNC(=O)c2ccncc2)c1 | < 0 | 224
C[C@H]1c2cccc(O)c2C(=O)C2C(=O)C3(O)C(=O)C(C(N)=O)C(=O)[C@@H](N(C)C)[C@@H]3[C@@H](O)[C@@H]21.Cl (some centres undefined) | 33.4 | 259
O=P1(c2ccccc2)Nc2ccccc2N1c1ccccc1 (centres undefined) | 8.15 | 264
Cc1nnc(SCC(=O)NNC(=O)COc2ccc(Br)cc2)n1C | 1.25 | 68.9
Cn1ccc(=Nc2ccc(NC(=O)c3ccc(/N=c4\ccn(C)c5ccc([N+](=O)[O-])cc45)cc3)cc2)cc1 | 108 | 260
O=C(/C=C\c1cccs1)N1CCN(Cc2ccc3c(c2)OCO3)CC1 | 135 | 218
Cc1cccc(-n2c(C)cc(/C=N/NC(N)=S)c2C)c1 | < 0 | 235
CCC(=O)NC(=S)Nc1ccc(NC(=S)NC(=O)c2ccc(C)cc2)cc1 | 11.9 | 265
Cc1ccccc1-n1c(SCC(=O)N/N=C/c2c(C)nn(-c3ccccc3)c2C)nc2ccccc2c1=O | 13.8 | 203
O=S1(=O)C=C(Sc2nc3ccccc3s2)c2ccccc21 | 179 | < 0
COc1ccc2nc(N3CCN(C(=O)c4ccc([N+](=O)[O-])o4)CC3)sc2c1 | 87 | 33.1
S=C(Nc1ccc(N2CCOCC2)cc1)Nc1ccc2snnc2c1 | 57.1 | 235
O=C(CCCOc1ccc(Cl)cc1Cl)Nc1ccccc1C(=O)O | 0.729 | 83.7
O=C(CC12CC3CC(CC(C3)C1)C2)N1CCCC1 | 75.6 | 216
NC(=S)N/N=C/c1cccc(Br)c1 | 35 | 270
Cc1ccc(Cn2cc(-c3ccccc3)nn2)cc1 | 11.2 | 191
C=CCOc1ccc(/C=N\NC(N)=S)cc1 | 10.8 | 276
CC(NC(=O)c1cccs1)c1ccc(Cl)cc1 (centres undefined) | 2.59 | 251

SMILES | area under cytotoxicity dose-response curve [1] | area under intracellular growth-inhibition dose-response curve [2]
COc1ccc(/C=N/NC(=O)c2ccncc2)cc1COc1ccc(NC(C)=O)cc1 | 14.4 | 272
Cn1cc(/C=N/NC(N)=S)c2ccccc21 | < 0 | 275
Cc1ccc(C)c(-c2nnc(NC(=O)c3ccc([N+](=O)[O-])o3)o2)c1 | 128 | 62
COc1cc(/C=N/NC(=O)c2ccncc2)ccc1Oc1ccc([N+](=O)[O-])cn1 | 71.3 | 194
CSc1ccc(NC(N)=S)cc1 | 35.6 | 248
O=C(CCCOc1ccccc1)NNC(=O)c1ccncc1 | < 0 | 263
COc1cc(/C=N/NC(N)=S)ccc1OCc1ccc(C)cc1 | 30.4 | 255
COc1ccc(C/C(C)=N/NC(=O)c2ccncc2)cc1 | 40.9 | 261
CCc1ccc(C(=O)NCc2cccs2)s1 | 17.6 | 220
S=C(NCc1ccc(Cl)cc1)NC12CC3CC(CC(C3)C1)C2 | < 0 | 157
O=C(NCc1cccc(C(F)(F)F)c1)c1ccc[nH]1 | 2.14 | 91
Nc1c2c(nc3ccn(Cc4ccccc4)c(=O)c13)CCC2 | 39.1 | 196
O=C(CCc1ccccc1)NC1C2CC3CC(C2)CC1C3 (centres undefined) | 3.6 | 194
Cc1occc1C(=O)N/N=C/C=C/c1ccccc1 | 60 | 87.6
CS(=O)(=O)N1CCN(C(=O)CCC2CCCC2)CC1 | 43.1 | 159
Cc1ccccc1OCC(=O)NC(=S)Nc1ccc(N2CCCC2)cc1 | 105 | 182
NS(=O)(=O)c1ccc(CCNC(=S)Nc2ccccc2)cc1 | < 0 | 221
CCOc1c2c(nc3ccc(Cl)cc13)CCC2 | 57.1 | 157
COc1ccc(Cn2c(SCc3ccccc3C)nc3cc(OC)c(OC)cc3c2=N)cc1 | 2.96 | 172
O=C(N/N=C/c1c(F)c(F)c(F)c(F)c1F)c1cccc(S(=O)(=O)N2CCOCC2)c1 | 128 | 45.4
O=C(C1COc2ccccc2O1)N1CCCCC1 (centres undefined) | 76 | 236

SMILES | area under cytotoxicity dose-response curve [1] | area under intracellular growth-inhibition dose-response curve [2]
Cc1cccc(OCC(=O)NCc2ccccc2)c1 | < 0 | 210
Cc1cccc(NC(=O)COC(=O)CCc2c[nH]c3ccccc23)c1C | 28.4 | 27.4
CCCC(=O)N1CCN(c2ccc(NC(=O)c3ccc([N+](=O)[O-])o3)cc2)CC1 | 129 | 107
CCCCCC(=O)NC(=S)Nc1ccc(NC(=O)c2ccco2)cc1 | 0.441 | 274
CCCCOc1ccc(C(=O)C2=C(O)C(=O)N(CCCOC)C2c2ccncc2)cc1 (centres undefined) | 19.4 | 106
CO[C@H]1C=CO[C@@]2(C)Oc3c(C)c(O)c4c(O)c(c(C=NN5CCN(C)CC5)c(O)c4c3C2=O)NC(=O)C(C)=CC=C[C@H](C)[C@H](O)[C@@H](C)[C@@H](O)[C@@H](C)[C@H](OC(C)=O)[C@@H]1C | 92.8 | 275
Cc1ccc2nc(-c3ccc(NC(=S)NC(=O)C(C)C)cc3)sc2c1 | 32.6 | 174
COc1ccc(/C=C(\NC(=O)c2ccc(C)cc2)C(=O)Nc2c(C)n(C)n(-c3ccccc3)c2=O)cc1 | 42 | 50.7
O=C(NCc1ccco1)c1cc([N+](=O)[O-])cc([N+](=O)[O-])c1 | 29.1 | 160
Cc1ccc(/C=C2\SC(N3CCCC3)=NC2=O)cc1 | 22.9 | 220
CN(C)c1ccc(S(=O)(=O)N2CCCCC2)cc1NC(=O)CCNC(=O)c1ccccc1Cl | < 0 | 67.5
Cc1nnc(SCC2=C(C(=O)O)N3C(=O)C(NC(=O)Cn4ncc(Cl)c4C)C3SC2)s1 (centres undefined) | 66.2 | 245
COc1ccc(C(=O)Oc2cc(/C=N/NC(N)=S)ccc2OC)cc1 | 53.3 | 211
O=C(NNC(=S)Nc1ccc(C(=O)O)c(O)c1)c1ccncc1 | 30.7 | 170
O=c1c2ccsc2ncn1Cc1ccc(Cl)cc1 | 15 | 120
COc1ccc(C)cc1-n1nnnc1SC(C)C(=O)NC1CCCC1 (centres undefined) | < 0 | 44.8
CC(=O)Nc1sc(N/N=C/c2ccc(O)cc2)nc1-c1ccc(C)cc1 | 84.1 | 181
Cc1c(Cl)cnn1CC(=O)NC1C(=O)N2C(C(=O)O)=C(CSc3nnnn3C)CSC12 (centres undefined) | 18.6 | 168
Cc1ccc(C(=O)NC2CCCCCC2)o1 | < 0 | 263
CC(C)(C)c1ccc(OCCNC(=O)c2nc[nH]n2)cc1 | < 0 | 233
